Reference: the NIST ThermoML archive (doi:10.1021/je101304x)

Settings: Liquid, Ebulliometric method (Recirculating still)

C=C(C)C(C)C [2,3-dimethyl-1-butene]
Settings	vapor or sublimation pressure [kPa]
341.87 K	153.7
343.06 K	158.1
343.95 K	162.3
345.83 K	171.3
347.12 K	178.2
348.71 K	186.4
350.49 K	196.3
352.78 K	208.6
353.27 K	211.3
354.06 K	216.3
356.15 K	228.9
358.73 K	244.9
361.3 K	262.1
362.89 K	273.7
363.19 K	275.3
364.38 K	284.9
365.57 K	292.7
366.96 K	303.8
368.24 K	313.9
369.04 K	319.7
370.13 K	328.6
371.12 K	336.4
372.21 K	346.1
372.9 K	351.5
373.7 K	358.8
374.59 K	366.7
375.19 K	372.1
375.78 K	377.4
376.87 K	386.8
377.37 K	391.7

c1ccccc1 [benzene]
Settings	vapor or sublimation pressure [kPa]
403.15 K	379.3

C1CCCCC1 [cyclohexane]
Settings	vapor or sublimation pressure [kPa]
403.15 K	362.8

CO [methanol]
Settings	vapor or sublimation pressure [kPa]
333.42 K	85.4
334.56 K	89.5
337.65 K	101.3
342.17 K	120.9
343.06 K	124.8
346.64 K	142.6
350.25 K	163.2
353.17 K	181
353.27 K	181.7
356.35 K	202.7
358.91 K	221.3
361.45 K	241.4
363.19 K	255.9
363.85 K	261.6
366.88 K	288.9
370.13 K	321.3
372.04 K	341.2
372.9 K	350.9
375.89 K	385.4
